The target in assay [1] is Activin receptor type-1B (Homo sapiens) (UniProt P36896). Kind of assay: Inhibition of human ALK4 (150 to end residues) assessed as residual activity at 10 uM using casein as substrate incubated for 40 mins in presence of [gamma-33ATP] by scintillation counting based radiometry assay relative to control.
Assay [2] deals with Calcium/calmodulin-dependent protein kinase type 1 (Homo sapiens) (UniProt Q14012). Kind of assay: Inhibition of recombinant human CaMKIalpha (2 to end residues) assessed as residual activity at 10 uM using […] incubated for 40 mins in presence of [gamma-33ATP] by scintillation counting based radiometry assay relative to control.
For assay [3], the target named is Calcium/calmodulin-dependent protein kinase type IV (Homo sapiens) (UniProt Q16566). Kind of assay: Inhibition of recombinant full length human CaMK4 assessed as residual activity at 10 uM using […] incubated for 40 mins in presence of [gamma-33ATP] by scintillation counting based radiometry assay relative to control.
Calcium/calmodulin-dependent protein kinase type IV (Homo sapiens), sequence (Q16566 whole entry): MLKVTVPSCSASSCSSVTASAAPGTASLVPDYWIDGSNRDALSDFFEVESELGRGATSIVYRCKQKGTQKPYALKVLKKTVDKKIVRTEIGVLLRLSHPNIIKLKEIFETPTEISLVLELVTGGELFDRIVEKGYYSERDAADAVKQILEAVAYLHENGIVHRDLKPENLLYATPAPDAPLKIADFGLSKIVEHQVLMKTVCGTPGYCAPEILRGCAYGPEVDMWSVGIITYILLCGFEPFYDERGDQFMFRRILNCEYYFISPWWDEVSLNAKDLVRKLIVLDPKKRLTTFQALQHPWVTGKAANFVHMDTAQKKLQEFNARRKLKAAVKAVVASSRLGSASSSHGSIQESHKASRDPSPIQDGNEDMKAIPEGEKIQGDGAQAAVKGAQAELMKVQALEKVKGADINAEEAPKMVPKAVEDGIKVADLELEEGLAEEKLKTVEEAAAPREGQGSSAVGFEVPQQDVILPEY
Assay [4] deals with Cyclin-Y/Cyclin-dependent kinase 16 (Homo sapiens) (UniProt Q00536+Q8ND76). Kind of assay: Inhibition of recombinant full length human CDK16/cyclinY assessed as residual activity at 10 uM using PKSPKARKKL as substrate incubated for 120 mins in presence of [gamma-33ATP] by scintillation counting based radiometry assay relative to control. The format is protein-complex assay.
Assay [5] deals with Epidermal growth factor receptor (Homo sapiens), P00533 [L861Q]. Kind of assay: Inhibition of recombinant human EGFR L861Q mutant (696 to end residues) assessed as residual activity at 10 uM using poly(Glu, Tyr) 4:1 as substrate at 40 mins in presence of [gamma-33ATP] by scintillation counting based radiometry assay relative to control.
The species entered for assay [6] is Homo sapiens. Description: Inhibition of recombinant human EphB2 A848S/K918E mutant (560 to end residues) assessed as residual activity at 10 uM using KTFCGTPEYLAPEVRREPRILSEEEQEMFRDFDYIADWC as substrate at 40 mins in presence of [gamma-33ATP] by scintillation counting based radiometry assay relative to control.
The target of assay [7] is Ephrin type-B receptor 1 (Homo sapiens) (UniProt P54762). Description: Inhibition of recombinant human EphB1 (564 to end residues) assessed as residual activity at 10 uM using KVEKIGEGTYGVVYK as substrate at 40 mins in presence of [gamma-33ATP] by scintillation counting based radiometry assay relative to control.
Ephrin type-B receptor 1 (Homo sapiens), sequence (P54762 whole entry, the tested form may be a part): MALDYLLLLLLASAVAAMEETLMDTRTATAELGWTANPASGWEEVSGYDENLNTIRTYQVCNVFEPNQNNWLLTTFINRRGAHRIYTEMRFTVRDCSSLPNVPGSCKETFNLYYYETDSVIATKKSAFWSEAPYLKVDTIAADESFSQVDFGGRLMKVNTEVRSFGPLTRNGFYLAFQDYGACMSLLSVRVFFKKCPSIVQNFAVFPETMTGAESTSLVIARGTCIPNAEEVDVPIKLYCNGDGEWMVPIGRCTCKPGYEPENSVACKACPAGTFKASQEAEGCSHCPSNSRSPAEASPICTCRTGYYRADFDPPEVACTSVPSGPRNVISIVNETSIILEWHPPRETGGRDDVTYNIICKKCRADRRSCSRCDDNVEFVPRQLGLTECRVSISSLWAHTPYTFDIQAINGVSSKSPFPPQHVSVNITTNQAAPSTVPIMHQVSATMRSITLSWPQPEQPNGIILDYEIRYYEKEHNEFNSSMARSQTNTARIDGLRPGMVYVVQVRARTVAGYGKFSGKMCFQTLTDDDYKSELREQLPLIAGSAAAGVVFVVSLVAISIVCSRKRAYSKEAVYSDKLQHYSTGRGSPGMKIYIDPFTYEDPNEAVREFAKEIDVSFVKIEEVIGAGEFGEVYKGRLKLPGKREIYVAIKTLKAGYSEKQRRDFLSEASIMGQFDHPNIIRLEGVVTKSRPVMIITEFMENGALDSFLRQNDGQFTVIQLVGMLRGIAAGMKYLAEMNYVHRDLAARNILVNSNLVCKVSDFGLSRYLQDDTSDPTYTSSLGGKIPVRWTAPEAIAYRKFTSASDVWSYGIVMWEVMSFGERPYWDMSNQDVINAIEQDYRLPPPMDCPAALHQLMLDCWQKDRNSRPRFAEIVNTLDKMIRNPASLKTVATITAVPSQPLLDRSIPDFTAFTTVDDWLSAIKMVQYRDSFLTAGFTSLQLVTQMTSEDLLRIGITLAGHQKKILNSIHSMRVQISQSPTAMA
Assay [8] has as its target Receptor tyrosine-protein kinase erbB-4 (Homo sapiens) (UniProt Q15303). Description: Inhibition of recombinant human ERBB4 (706 to 991 residues) assessed as residual activity at 10 uM using poly(Glu, Tyr) 4:1 as substrate at 40 mins in presence of [gamma-33ATP] by scintillation counting based radiometry assay relative to control.
In assay [9] the target is Rhodopsin kinase GRK1 (Homo sapiens) (UniProt Q15835). Kind of assay: Inhibition of recombinant full length human GRK1 assessed as residual activity at 10 uM using KKKKERLLDDRHD as substrate at 40 mins in presence of [gamma-33ATP] by scintillation counting based radiometry assay relative to control.
For assay [10], the target named is Insulin receptor-related protein (Homo sapiens) (UniProt P14616). Description: Inhibition of human IRR (943 to 1266 residues) assessed as residual activity at 10 uM using myelin basic protein as substrate after 40 mins by [gamma-33ATP] radiometric assay relative to control.
For assay [11], the target named is Tyrosine-protein kinase ITK/TSK (Homo sapiens) (UniProt Q08881). Kind of assay: Inhibition of human Itk (352 to 617 residues) assessed as residual activity at 10 uM using myelin basic protein as substrate after 40 mins by [gamma-33ATP] radiometric assay relative to control.
The subject of assay [12] is Platelet-derived growth factor receptor alpha (Homo sapiens), P16234 [D842V]. Description: Inhibition of human PDGFRalpha D842V mutant (550 to end residues) assessed as residual activity at 10 uM using poly(Glu, Tyr) 4:1 as substrate measured after 40 mins in presence of [gamma33P]ATP by scintillation counting based radiometry assay relative to control.
Assay [13] deals with RAC-beta serine/threonine-protein kinase (Homo sapiens), P31751 [S474D]. Kind of assay: Inhibition of recombinant human PKBbeta S474D mutant (120 to end residues) assessed as residual activity at 10 uM using GRPRTSSFAEGKK as substrate incubated for 40 mins in presence of [gamma33P]ATP by scintillation counting based radiometry assay relative to control.
RAC-beta serine/threonine-protein kinase (Homo sapiens), P31751 [S474D], sequence (P31751 whole entry S474D): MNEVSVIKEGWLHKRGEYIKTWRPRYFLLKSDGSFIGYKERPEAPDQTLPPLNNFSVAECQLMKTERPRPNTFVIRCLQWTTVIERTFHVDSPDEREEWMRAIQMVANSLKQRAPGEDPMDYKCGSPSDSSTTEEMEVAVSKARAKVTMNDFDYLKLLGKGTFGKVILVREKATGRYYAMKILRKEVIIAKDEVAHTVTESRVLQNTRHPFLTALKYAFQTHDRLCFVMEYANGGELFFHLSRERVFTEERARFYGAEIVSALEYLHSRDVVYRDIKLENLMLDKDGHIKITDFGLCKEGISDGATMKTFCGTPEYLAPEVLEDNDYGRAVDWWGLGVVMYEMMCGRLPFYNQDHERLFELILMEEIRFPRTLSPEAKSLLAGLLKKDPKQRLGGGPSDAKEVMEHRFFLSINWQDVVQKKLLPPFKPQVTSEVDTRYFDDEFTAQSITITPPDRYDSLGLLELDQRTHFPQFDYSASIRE
Assay [14] relates to Serine/threonine-protein kinase D1 (Homo sapiens), Q15139 [UNDEFINED MUTATION]. Description: Inhibition of recombinant full-length human PKCmu R135A mutant assessed as residual activity at 10 uM using KKLNRTLSVA as substrate incubated for 40 mins in presence of [gamma33P]ATP by scintillation counting based radiometry assay relative to control.
Serine/threonine-protein kinase D1 (Homo sapiens), Q15139 [UNDEFINED MUTATION], sequence (Q15139 whole entry, looked up, stated change not applied): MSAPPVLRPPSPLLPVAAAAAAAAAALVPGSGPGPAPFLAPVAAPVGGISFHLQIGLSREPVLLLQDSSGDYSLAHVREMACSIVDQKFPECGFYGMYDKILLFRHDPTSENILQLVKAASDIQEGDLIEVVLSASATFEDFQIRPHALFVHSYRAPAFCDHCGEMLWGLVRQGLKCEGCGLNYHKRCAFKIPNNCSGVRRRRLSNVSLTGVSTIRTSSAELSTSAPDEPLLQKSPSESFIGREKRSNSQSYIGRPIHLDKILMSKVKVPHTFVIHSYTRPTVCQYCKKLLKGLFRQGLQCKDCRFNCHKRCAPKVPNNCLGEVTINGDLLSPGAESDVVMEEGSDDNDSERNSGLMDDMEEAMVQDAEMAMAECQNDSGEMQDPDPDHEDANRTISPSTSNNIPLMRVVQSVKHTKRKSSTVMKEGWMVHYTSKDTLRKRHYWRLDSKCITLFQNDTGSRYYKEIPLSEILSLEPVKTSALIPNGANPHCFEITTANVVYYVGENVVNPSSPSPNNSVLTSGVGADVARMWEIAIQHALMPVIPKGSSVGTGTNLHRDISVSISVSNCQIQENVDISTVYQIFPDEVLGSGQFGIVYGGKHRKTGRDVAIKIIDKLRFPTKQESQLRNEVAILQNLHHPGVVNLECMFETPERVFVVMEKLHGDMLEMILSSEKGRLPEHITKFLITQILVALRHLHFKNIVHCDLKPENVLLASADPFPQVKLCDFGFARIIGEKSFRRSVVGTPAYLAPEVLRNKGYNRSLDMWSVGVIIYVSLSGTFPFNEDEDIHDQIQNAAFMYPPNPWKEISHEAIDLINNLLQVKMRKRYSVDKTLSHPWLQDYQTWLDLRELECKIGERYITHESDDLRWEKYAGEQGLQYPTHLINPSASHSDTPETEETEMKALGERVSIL
Assay [15] concerns Serine/threonine-protein kinase N1 (Homo sapiens), Q16512 [V901I]. Description: Inhibition of recombinant human PRK1 V901I mutant (498 to end residues) assessed as residual activity at 10 uM using KKLNRTLSFAEPG as substrate incubated for 40 mins in presence of [gamma33P]ATP by scintillation counting based radiometry assay relative to control.
The species entered for assay [16] is Homo sapiens. Kind of assay: Inhibition of activated recombinant human TEC F514V mutant activated (174 to end residues) assessed as residual activity at 10 uM using EFPIYDFLPAKKK as substrate incubated for 40 mins in presence of [gamma33P]ATP by scintillation counting based radiometry assay relative to control.
For assay [17], the target named is Serine/threonine-protein kinase tousled-like 2 (Homo sapiens) (UniProt Q86UE8). Description: Inhibition of recombinant human TLK2 (387 to end residues) assessed as residual activity at 10 uM using casein as substrate incubated for 40 mins in presence of [gamma33P]ATP by scintillation counting based radiometry assay relative to control.
Serine/threonine-protein kinase tousled-like 2 (Homo sapiens), sequence (Q86UE8 whole entry, looked up): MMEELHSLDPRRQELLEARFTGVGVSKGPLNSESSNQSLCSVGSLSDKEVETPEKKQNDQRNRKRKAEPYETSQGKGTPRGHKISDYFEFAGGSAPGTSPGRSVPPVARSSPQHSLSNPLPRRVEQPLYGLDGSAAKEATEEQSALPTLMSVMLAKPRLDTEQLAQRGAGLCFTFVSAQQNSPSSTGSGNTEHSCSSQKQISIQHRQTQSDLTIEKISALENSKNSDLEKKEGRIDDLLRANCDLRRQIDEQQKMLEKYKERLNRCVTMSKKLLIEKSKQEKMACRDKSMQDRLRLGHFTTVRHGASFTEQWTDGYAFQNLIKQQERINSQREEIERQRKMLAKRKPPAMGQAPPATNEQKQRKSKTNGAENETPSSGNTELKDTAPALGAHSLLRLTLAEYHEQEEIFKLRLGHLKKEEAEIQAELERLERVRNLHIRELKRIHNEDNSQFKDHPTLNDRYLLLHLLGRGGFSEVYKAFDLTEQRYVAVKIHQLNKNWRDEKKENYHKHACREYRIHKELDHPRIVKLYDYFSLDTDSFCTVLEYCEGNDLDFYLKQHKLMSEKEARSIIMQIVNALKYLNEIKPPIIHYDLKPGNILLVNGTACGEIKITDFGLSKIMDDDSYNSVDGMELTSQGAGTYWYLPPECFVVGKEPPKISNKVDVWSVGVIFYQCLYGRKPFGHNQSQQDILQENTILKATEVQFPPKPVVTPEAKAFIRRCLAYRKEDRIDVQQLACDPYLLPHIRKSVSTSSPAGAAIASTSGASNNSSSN
For assay [18], the target named is Wee1-like protein kinase 2 (Homo sapiens) (UniProt P0C1S8). Kind of assay: Inhibition of recombinant full length human WEE1b assessed as residual activity at 10 uM using LSNLYHQGKFLQTFCGSPLYRRR as substrate incubated for 40 mins in presence of [gamma33P]ATP by scintillation counting based radiometry assay relative to control.
Wee1-like protein kinase 2 (Homo sapiens), sequence (P0C1S8 whole entry, looked up): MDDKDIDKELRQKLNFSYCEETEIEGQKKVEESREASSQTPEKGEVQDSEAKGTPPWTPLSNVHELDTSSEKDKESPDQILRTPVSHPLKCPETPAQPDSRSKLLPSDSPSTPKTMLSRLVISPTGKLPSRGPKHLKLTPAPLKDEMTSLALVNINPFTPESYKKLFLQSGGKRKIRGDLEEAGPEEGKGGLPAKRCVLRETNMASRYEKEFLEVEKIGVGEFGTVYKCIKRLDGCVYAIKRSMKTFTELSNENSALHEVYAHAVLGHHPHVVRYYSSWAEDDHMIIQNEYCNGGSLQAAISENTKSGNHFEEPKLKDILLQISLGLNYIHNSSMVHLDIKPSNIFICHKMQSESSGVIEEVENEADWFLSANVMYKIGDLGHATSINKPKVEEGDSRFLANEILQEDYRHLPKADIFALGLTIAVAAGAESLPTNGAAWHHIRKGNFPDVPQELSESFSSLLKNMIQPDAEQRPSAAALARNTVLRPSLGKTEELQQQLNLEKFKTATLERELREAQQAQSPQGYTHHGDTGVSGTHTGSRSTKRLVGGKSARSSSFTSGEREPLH
For assay [19], the species on record is Homo sapiens. Kind of assay: Inhibition of recombinant full-length human ATR/ATRIP M211T mutant assessed as residual activity at 10 uM using GST-cMyc-p53 as substrate measured after 40 mins by fluorescence assay relative to control.
For assay [20], the species on record is Homo sapiens. Kind of assay: Inhibition of recombinant human full length PI3K p120gamma R459Q mutant assessed as residual activity at 10 uM using phosphatidylinositol-4, 5-bisphosphate as substrate incubated for 40 mins in presence of [gamma33P]ATP by scintillation counting based radiometry assay relative to control.
Assay [21] deals with PI3-kinase p110-alpha/p85-alpha (Homo sapiens), P27986+P42336 [H1047R]. Kind of assay: Inhibition of recombinant full-length human PI3K p110/p85 H1047R mutant assessed as residual activity at 10 uM using phosphatidylinositol-4, 5-bisphosphate as substrate incubated for 40 mins in presence of [gamma33P]ATP by scintillation counting based radiometry assay relative to control.

Activin receptor type-1B (Homo sapiens), sequence (P36896 whole entry): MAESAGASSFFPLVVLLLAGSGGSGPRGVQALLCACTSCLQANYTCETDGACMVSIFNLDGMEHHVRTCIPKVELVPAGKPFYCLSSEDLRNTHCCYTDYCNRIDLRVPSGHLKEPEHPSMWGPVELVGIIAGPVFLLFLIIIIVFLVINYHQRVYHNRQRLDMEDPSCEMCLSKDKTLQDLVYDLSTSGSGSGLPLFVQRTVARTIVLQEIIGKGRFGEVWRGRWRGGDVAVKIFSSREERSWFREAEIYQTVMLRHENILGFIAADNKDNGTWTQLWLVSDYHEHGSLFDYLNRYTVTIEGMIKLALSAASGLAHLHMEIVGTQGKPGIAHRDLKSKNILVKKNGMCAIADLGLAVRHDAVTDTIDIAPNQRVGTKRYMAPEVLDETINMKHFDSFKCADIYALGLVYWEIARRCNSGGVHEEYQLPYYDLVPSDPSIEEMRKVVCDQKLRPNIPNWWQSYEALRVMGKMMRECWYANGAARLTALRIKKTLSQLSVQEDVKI

Turning to `C[C@@H](c1ccccc1)n1nnc2cnc3ccc(-c4cnc5[nH]ccc5c4)cc3c21`, the Activity in assay [1] stood at 100%; in [2], 28%; in [3], 39%; in assay [4] it was 106%; in assay [5] it was 70%; in [6], 83%. Further, the Activity in [7] came to 152%; in assay [8], 73%; in assay [9] it was 87%; in [10] it was 86%; in [11], 64%; in [12] it was 4%. Further, the Activity in [13] is 61%; in assay [14], 93%; in assay [15] it was 60%; in assay [16], 35%; in [17] it was 106%; in [18], 90%. Moreover, the Activity in assay [19] worked out at 40%; in [20], 16%; in [21] it was 16%.

The values are drawn from ChEMBL document CHEMBL4334471, “Discovery of 1,8-disubstituted-[1,2,3]triazolo[4,5-c]quinoline derivatives as a new class of Hippo signaling pathway inhibitors” (Bioorg Med Chem Lett, 2019).
